# Data reported in US20090209576A1, “PHARMACEUTICAL COMPOSITION CONTAINING CLOPIDOGREL CAMPHORSULFONATE OR POLYMORPHIC FORMS THEREOF” (HANMI PHARM. CO., LTD., priority 2006, published 2009).
# Where a name gives a salt, the structure may show the parent alone. Read-outs that look alike come from different tables or passages of the source.
# Tests used:
# [1] = for water content / hygroscopicity under accelerated condition: 60° C. and 75% relative humidity for a period of over 28 days; for Amount of acid addition salts of clopidogrel / Amount of hydrolyzed impurities / Amount of levorotatory isomers / Water content: 60±2° C., 75±5% relative humidity
# Experimental: (§1) Condition A: For the Measurement of the Assay of Acid Addition Salt of Clopidogrel
# (§2) Column: Kromasil C18, 5 μm (250 mm×4.6 mm)
# (§3) Mobile phase: Na2HPO4—NaH2PO4 buffer solution:TBF:CH3CN=5:2:3 (v/v)
# Condition B: For the Measurement of the Amount of Hydrolyzed Impurities of Acid Addition Salt of Clopidogrel
# Column: Capcellpak C18 MG, 5 μm (250 mm×4.6 mm)
# Mobile phase: KH2PO4 buffer solution/CH3CN (70/30):KH2PO4 buffer solution/CH3CN (30/70)=0:100→[…] (v/v, gradient elution)
# Condition C: For the Measurement of the Optical Purity of Acid Addition Salt of Clopidogrel
# Column: Chiralpak AD, 5 μm (250 mm×4.6 mm)
# Mobile phase: n-hexane:isopropanol=90:10 (v/v)
# The camphorsulfonate polymorphic form A1 obtained in Example 1, the camphorsulfonate polymorphic form B1 obtained in Example 2, the hydrogen sulfate obtained in Comparative Example 1 and the benzenesulfonate obtained in Comparative Example 2 were each subjected to a condition of 60±2° C. and 75±5% relative humidity for a period of 28 days to test their stabilities. The changes of the assay of the acid addition salts of clopidogrel, and the amounts of hydrolyzed impurities and levorotatory isomers thereof and the water content thereof were measured at 7, 14, 21 and 28 days relative to that of the initial day (0) using HPLC. The results are shown in Tables 6 to 9 and FIGS. 12 to 15, respectively.
# physchem = assay: physchem
# Source text: as §1, §2, §3
# The camphorsulfonate polymorphic form A1 obtained in Example 1, the camphorsulfonate polymorphic form B1 obtained in Example 2, the hydrogen sulfate obtained in Comparative Example 1 and the benzenesulfonate obtained in Comparative Example 2 were each dissolved in unionized water until saturated. The amounts of clopidogrel in the resulting solutions were measured under HPLC condition A, and the results are shown in Table 5.
# [2] = dissolved in unionized water until saturated, HPLC condition A
Compound,water content / hygroscopicity under accelerated condition [1],Amount of acid addition salts of clopidogrel ([1]; 0 day) [%],Amount of hydrolyzed impurities ([1]; 0 day) [%],Amount of levorotatory isomers ([1]; 0 day) [%],Water content ([1]; 0 day) [%],Amount of acid addition salts of clopidogrel ([1]; 7 days) [%],Amount of hydrolyzed impurities ([1]; 7 days) [%],Amount of levorotatory isomers ([1]; 7 days) [%],Water content ([1]; 7 days) [%],Amount of acid addition salts of clopidogrel ([1]; 14 days) [%],Amount of hydrolyzed impurities ([1]; 14 days) [%],Amount of levorotatory isomers ([1]; 14 days) [%],Water content ([1]; 14 days) [%],Water content ([1]; 21 days) [%],Amount of acid addition salts of clopidogrel ([1]; 28 days) [%],Amount of hydrolyzed impurities ([1]; 28 days) [%],Amount of levorotatory isomers ([1]; 28 days) [%],Water content ([1]; 28 days) [%],Water-solubility (physchem; [2]),further results
"COC(=O)C(c1ccccc1Cl)N1CCc2sccc2C1 (stereo in doubt) [Camphorsulfonate (polymorphic form A1), clopidogrel (−)-(1R)-camphor-10-sulfonate]",almost maintain their original water contents,99.2,0.01,0.02,0.0,99.1,0.08,0.02,0.1,99.6,0.15,0.02,0.0,0.0,99.1,0.17,0.02,0.1,"4.04 mg/ml, as clopidogrel","solubility (physchem; unionized water, water, thermodynamic from solid): ~4000 µg/mL"
"COC(=O)[C@H](c1ccccc1Cl)N1CCc2sccc2C1 [Camphorsulfonate (polymorphic form B1), clopidogrel (+)-(1S)-camphor-10-sulfonate]",almost maintain their original water contents,99.6,0.01,0.01,0.1,99.2,0.01,0.01,0.1,99.9,0.02,0.02,0.1,0.1,99.3,0.03,0.03,0.1,"3.98 mg/ml, as clopidogrel",Water-solubility (physchem; measured in a saturated aqueous solution): around 4.0 mg/ml
"COC(=O)[C@H](c1ccccc1Cl)N1CCc2sccc2C1 [Hydrogen sulfate, Clopidogrel hydrogen sulfate, reference compound]",–,99.2,0.03,0.01,0.2,98.8,0.72,0.05,0.3,97.5,2.15,0.19,0.8,2.8,80.5,16.49,1.53,7.3,"7.42 mg/ml, as clopidogrel",–
Clopidogrel benzenesulfonate [reference compound],–,99.3,0.01,0.01,0.1,93.9,2.79,0.81,6.4,80.5,8.56,2.49,7.3,9.2,61.7,25.33,4.79,9.4,"4.74 mg/ml, as clopidogrel",–
